Assay results reported in patent publication US20190337899A1, “QUINOLINE SULFONAMIDES USEFUL TO TREAT DISEASE” (priority 2015, published 2019).

How the values were obtained:
HEK293 cells; N2a cells = assay: Cell rescue assay: protection against thapsigargin (TG)-induced cell-death (AlamarBlue); format: cell-based, Human (HEK293); Mouse (N2a); details: Homo sapiens; compound at 20 μM, 2 hrs before thapsigargin (15 μM HEK293, 1 μM N2a), 24 hrs, viability as % RFU of control; read-out: Cell Survival %
Description: Protection against Thapsigargin (TG)-induced Cell-death. Human embryonic kidney (HEK293) cells were grown in Dulbecco's Modified Eagle's Medium (DMEM) with 10% FBS and 1% antibiotic antimycotic solution (ABAM). Mouse neuroblastoma (N2a) cells were grown in 1:1 DMIEM:OPTI-MIEM® with 5% FBS and 1% ABAM. All cells were grown in 10% CO2 in a humidified environment of the incubator. Cells grown in 96-well plates were exposed to a test compound (20 μM) for 2 hrs before addition of thapsigargin (15 μM for HEK293 cells and 1 μM for N2a cells) to induce ER stress. After incubation in cell-culture incubator for 24 hrs, ALAMARBLUE® regent (10% v/v) was added to the wells. Fluorescence reading was taken 2 hrs after the addition of the ALAMARBLUE® regent. Cell-viability was calculated as a percentage of relative fluorescence unit (RFU) compared to control. […] The biological results are summarized in Table 2, where each compound was tested at 20 μM and where A represents a viability greater than 50%, B represents a viability greather than 10% and less than or equal to 50%, C represents a value equal to or below 10% and greater than 1%.

SERCA = biological target: T1, SERCA (Homo sapiens, UniProt P16615); assay: Ca-ATPase assay (NADH-linked, enzyme-coupled ATPase assay); format: biochemical; details: microsomal preparations from HEK 293 cells, Vmax from Hill fit of ATPase calcium-dependence
T1 construct: microsomal preparations from HEK 293 cells; endogenous in cells; host or cells: HEK 293 cells (microsomal preparation)
T1 sequence (P16615 whole entry): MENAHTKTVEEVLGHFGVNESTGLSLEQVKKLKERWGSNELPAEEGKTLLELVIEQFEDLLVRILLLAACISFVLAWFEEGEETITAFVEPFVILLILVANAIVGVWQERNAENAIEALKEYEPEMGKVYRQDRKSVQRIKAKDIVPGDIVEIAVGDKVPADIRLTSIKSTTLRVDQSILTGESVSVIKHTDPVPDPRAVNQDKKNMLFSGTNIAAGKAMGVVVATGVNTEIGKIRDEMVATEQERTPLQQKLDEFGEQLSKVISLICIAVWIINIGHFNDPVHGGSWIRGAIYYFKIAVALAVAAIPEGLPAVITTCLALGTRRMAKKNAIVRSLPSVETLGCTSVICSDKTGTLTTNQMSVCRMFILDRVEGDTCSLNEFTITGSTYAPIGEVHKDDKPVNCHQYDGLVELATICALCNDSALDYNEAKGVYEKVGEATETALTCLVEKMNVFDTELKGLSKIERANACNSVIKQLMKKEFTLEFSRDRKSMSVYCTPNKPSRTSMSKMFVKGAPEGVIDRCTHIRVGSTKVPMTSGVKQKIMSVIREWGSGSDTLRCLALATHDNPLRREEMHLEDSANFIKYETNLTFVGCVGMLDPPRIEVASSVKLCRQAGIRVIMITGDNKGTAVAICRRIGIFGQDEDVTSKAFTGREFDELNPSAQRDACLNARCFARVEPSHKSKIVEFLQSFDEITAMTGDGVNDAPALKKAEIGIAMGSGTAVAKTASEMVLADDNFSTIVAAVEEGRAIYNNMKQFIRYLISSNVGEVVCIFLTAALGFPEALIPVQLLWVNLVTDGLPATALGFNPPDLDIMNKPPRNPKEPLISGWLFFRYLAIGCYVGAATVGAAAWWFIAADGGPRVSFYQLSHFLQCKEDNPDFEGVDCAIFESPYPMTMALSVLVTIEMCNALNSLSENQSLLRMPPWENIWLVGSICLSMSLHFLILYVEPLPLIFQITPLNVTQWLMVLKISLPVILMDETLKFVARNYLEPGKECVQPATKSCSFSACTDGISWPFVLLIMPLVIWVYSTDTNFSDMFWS
Description: A Ca-ATPase assay was performed using microsomal preparations from HEK 293 cells at a series of calcium concentrations corresponding to the physiological range, relative to controls. The ATP hydrolysis rate was measured over a range of calcium concentrations in the presence of test compounds using an NADH-linked, enzyme-coupled ATPase assay adapted for 96-well microplates, with Vmax determined by fitting the ATPase calcium-dependence to the Hill function. Each well contained 2 μg or 7 μg of SR vesicles (optimized for skeletal or cardiac SR, respectively), 50 mM MOPS (pH 7.0), 100 mM KCl, 5 mM MgCl2, 1 mM EGTA, 0.2 mM NADH, 1 mM phosphoenol pyruvate, 5 IU pyruvate kinase, 5 IU lactate dehydrogenase, and 3.5 μg/mL A23187 (a calcium ionophore). CaCl2 was added to set free [Ca^2+] to the specific values. The assay was started upon addition of ATP at a final concentration of 5 mM, and read in a SpectraMax Plus microplate spectrophotometer. The results are summarized in Table 4, where A represents an increase in SERCA Vmax greater than 50% and B represents a value greater than 10% and less than or equal to 50%.

SH-SY5Y cells = assay: Cell rescue assay: protection against β-amyloid-induced cell toxicity; format: cell-based; details: Homo sapiens, 96 h, 7.5 uM compound, AB1-42 at 10 uM, 4 days, OD 490 nm, read-out: Cell Survival % (cell rescue)
Description: Protection against β-amyloid-induced cell toxicity. Chonpathompikunlert et al. Eu. J. Pharmacol. 2011, 650, 544-549. Human SH-SY5Y cells are suspended in media containing 2% FBS and 2X Gentamicin. Transfer 100 ul/well culture to 96-well plate (20,000 cells/well; passage #5) and incubate overnight. Prepare compound samples at 30 uM. Add 50 ul of the samples to the cells [[…]] and incubate 3 hours. Make stock of 40 uM AB1-42 peptide in assay media. Transfer 50 ul/well to cells/compounds in assay plate. The final assay volume is 200 ul/well, containing 2% FBS, 2× Gentamicin, 7.5 uM compound and AB1-42 at 10 uM. Incubate for 4 days then add 20 µl of Promega Substrate Cell Titer 96 Aqueous One Solution Reagent to each well. Incubate 37° C. and read OD at 490 nm. The results are summarized in Table 3, where A represents a value greater than 50% cell rescue, B represents a value greater than 10% and less than or equal to 50% cell rescue, and C represents a value greater than 1% and less than or equal to 10% cell rescue.

Ob/ob mice = assay: Effect of a SERCA agonist on the level of blood glucose; format: in vivo; details: Mus musculus, ip, 96 h, 50 mg/kg i.p. once a day for 5 days, fasting glucose 4 days after administration vs baseline, read-out: Glucose level reduction
Description: Ob/ob mice (10 weeks old, n=7) were intraperitoneally (i.p.) injected with 100 μL of a solution containing 0 (vehicle) or 50 mg/kg of a test compound once a day for a total of 5 days. Fasting glucose was measured at baseline and 4 days after the administration of the test compound. Glucose levels were measured in blood samples drawn from the tail vein using a handheld glucose sensor. Compound effects on blood glucose are shown in Table 5 where A represents a 10-20% reduction in blood glucose, B represents a 21-30% reduction in blood glucose, and C represents a greater than 30% reduction in blood glucose levels.

CSM14.1 neuronal cells = assay: Cell survival assay (thapsigargin-treated CSM14.1 neuronal cells, CellTiter-Glo); format: cell-based; details: compound 2 hrs before about 15 μM thapsigargin, overnight, CellTiter-Glo luminescence
Description: CSM14.1 neuronal cells were maintained in Complete Medium at 32 ° C.; wherein the Complete Medium contained Dulbecco's modified eagle medium (DMEM) with 10% fetal bovine serum (FSB), 1% L-glutamine, 100 IU/mL penicillin, and 100 μg/mL streptomycin. The cells were recovered from cultures by trypsinization and then seeded in 384 well plates (Greiner #781098) at a concentration of 1,000 cells/well in 20 μL of DMEM Assay Medium, wherein the DMEM Assay Medium contained 2% FBS, 100 IU/mL penicillin, and 100 μg/mL streptomycin. Seeding was performed using a MultiDrop Combi reagent broadcaster. The plates were incubated overnight at 32° C. A test compound was prepared by 2-fold serial dilution in 100% DMSO using a BIOMEK® 2000 liquid handler (Beckman Coulter). A dose-response curve containing 10 concentrations of the test compound was obtained. Using a BIOMEK® FX liquid handler (Beckman Coulter), 2.5 μL of the test compound was transferred from the 100% DMSO serial dilution plate to an intermediate plate containing 47.5 μL of DMEM Assay Medium containing 2% FBS, 100 IU/mL penicillin, and 100 μg/mL streptomycin and mixed. To reduce or eliminate the interference from the compound's precipitation, 6 μL of the diluted compound was immediately transferred to the assay plate to achieve a high compound concentration of 100 μM in 99% DMEM Assay Medium and 1% DMSO. After the assay plates were incubated for 2 hrs, 4 μL of 112.5 μM thapsigargin (TG) (DMSO stock diluted into Assay TC Medium) was dispensed into each testing well with a MultiDrop Combi reagent broadcaster for a final concentration of about 15 μM TG. The tissue culture media (4 μL) containing vehicle only was transferred manually to each control cell using a 16 channel electronic pipette. After the plates were incubated overnight (about 16 to 24 hrs), CELLTITER-GLO® (Promega) (16 μL) was added to all wells and luminescence was measured. High luminescence indicates cell survival. The biological results are summarized in Table 1 where A represents a cell viability EC50 less than 10 μM and B represents a value greater than or equal to 10 μM and less than 20 μM.

Compound	viability at 20 µM (HEK293 cells; N2a cells)	SERCA Vmax Increase (SERCA)	viability at 7.5 µM (SH-SY5Y cells)	inhibition in vivo at 50 mg/kg (Ob/ob mice)	EC50 (CSM14.1 neuronal cells)
Cc1ccc2cccc(NS(=O)(=O)c3ccc(OC(C)C)cc3)c2n1 [D1, 4-Isopropoxy-N-(2-methylquinolin-8-yl)benzenesulfonamide]	> 50%	B (B represents a value greater than 10% and less than or equal to 50%)	> 50%	> 30%	< 10 µM
CCOc1ccc(S(=O)(=O)Nc2cccc3ccc(C)nc23)cc1 [D2, 4-Ethoxy-N-(2-methylquinolin-8-yl)benzenesulfonamide]	10 to 50%	A (A represents an increase in SERCA Vmax greater than 50%)	> 50%	> 30%	< 10 µM
COc1c(C)cccc1S(=O)(=O)Nc1cccc2ccc(C)nc12 [D3, 2-Methoxy-3-methyl-N-(2-methylquinolin-8-yl)benzenesulfonamide]	10 to 50%	A (A represents an increase in SERCA Vmax greater than 50%)	10 to 50%	10 to 20%	10 to 20 µM
Cc1ccc2cccc(NS(=O)(=O)c3cc4ccccc4s3)c2n1 [D4, N-(2-Methylquinolin-8-yl)benzo[b]thiophene-2-sulfonamide]	> 50%	B (B represents a value greater than 10% and less than or equal to 50%)	10 to 50%	> 30%	10 to 20 µM
Cc1ccc2cccc(NS(=O)(=O)c3ccc(C(F)(F)F)cc3)c2n1 [D5, 4-Trifluoromethyl-N-(2-methylquinolin-8-yl)benzenesulfonamide]	> 50%	A (A represents an increase in SERCA Vmax greater than 50%)	10 to 50%	21 to 30%	< 10 µM
Cc1ccc2cccc(NS(=O)(=O)c3ccc(C#N)cc3)c2n1 [D6, 4-Cyano-N-(2-methylquinolin-8-yl)benzenesulfonamide]	10 to 50%	A (A represents an increase in SERCA Vmax greater than 50%)	1 to 10%	21 to 30%	10 to 20 µM
Cc1ccc2cccc(NS(=O)(=O)c3ccc(N(C)C)cc3)c2n1 [D7, 4-Dimethylamino-N-(2-methylquinolin-8-yl)benzenesulfonamide]	10 to 50%	B (B represents a value greater than 10% and less than or equal to 50%)	1 to 10%	21 to 30%	10 to 20 µM
Cc1ccc2cccc(NS(=O)(=O)c3cc(Br)cs3)c2n1 [D8, 4-Bromo-N-(2-methylquinolin-8-yl)thiophene-2-sulfonamide]	> 50%	B (B represents a value greater than 10% and less than or equal to 50%)	10 to 50%	> 30%	10 to 20 µM
Cc1ccc2cccc(NS(=O)(=O)c3ccc(C)o3)c2n1 [D9, 5-Methyl-N-(2-methylquinolin-8-yl)furan-2-sulfonamide]	10 to 50%	B (B represents a value greater than 10% and less than or equal to 50%)	10 to 50%	10 to 20%	10 to 20 µM
Cc1ccc2cccc(NS(=O)(=O)c3ccc(C(C)(C)C)cc3)c2n1 [D10, 4-(tent-Butyl)-N-(2-methylquinolin-8-yl)benzenesulfonamide]	10 to 50%	A (A represents an increase in SERCA Vmax greater than 50%)	10 to 50%	21 to 30%	10 to 20 µM
